Laboratory results as given in patent US10010547B2 (CASCADIAN THERAPEUTICS, INC., priority 2014, dated 2018).
Structures can show the parent of a compound that is named as a salt. Where two headings read alike, the source gives them in different places.

What was measured:
[1] = tested on: MIA PaCa-2 cells; assay: Gemcitabine Combination Cell Assay (Cell Titer Glo); assay type: cell-based; conditions: for IC50: Homo sapiens; for 10xLS: approximate concentration of Chk1 inhibitor that results in a 10-fold reduction in the IC50 of gemcitabine alone; for 2xLS: approximate concentration of Chk1 inhibitor that results in a two-fold reduction in the IC50 of gemcitabine alone
Method: Gemcitabine Combination Cell Assay
Exponentially growing MIA PaCa-2 (ATCC CRL-1420) cells are treated with trypsin to remove cells from the plate surface. Approximately 10,000 cells/well are plated in 96 well plates in RPMI containing 10% fetal bovine serum, 1% sodium pyruvate and 1% L-GlutaMax. Cells are allowed to adhere to the plate surface overnight. Serial half-log dilutions of Chk1 inhibitor test compounds and gemcitabine are made with a final highest concentration of 3000 nM and 100 nM, respectively. Chk1 inhibitors and gemcitabine are combined so that each concentration of Chk1 inhibitor is added to each concentration of gemcitabine. Each drug is also tested as a single agent. Drugs are added to adherent cells (in duplicate) and incubated for 72 h. At 72 h the cells are treated with Promega Cell Titer Glo reagent for approximately 15 minutes. Luminescence (relative light units, RLU) is recorded using a BMG Polarstar Omega plate reader. The single agent concentration that results in a 50% reduction in total signal (IC50) is calculated using PRISM software and a four-parameter non-linear regression curve fit. For combination studies the RLUs are plotted using PRISM on an XY plot with the gemcitabine concentration on the X axis and RLU on the Y axis. The RLU for each concentration of Chk1 inhibitor is plotted as a function of gemcitabine concentration. The IC50 for gemcitabine alone and at each concentration of Chk1 is determined using a four-parameter non-linear regression curve fit. The approximate concentration of Chk1 inhibitor that results in a two and ten-fold reduction in the IC50 of gemcitabine alone is calculated as an indication of synergistic potency.
From the results obtained by following the above protocol, the IC50 values against MIAPaca-2 cells of the Chk1 inhibitor alone (Chk1 IC50), the approximate concentration of Chk1 inhibitor that results in a two-fold (2×LS) and a 10-fold (10×LS) reduction in the IC50 of gemcitabine alone of each of the compounds of Examples 1-154 are shown in Table 4.

[2] = molecular target: Chk-1 kinase (Homo sapiens (Human), UniProt O14757); assay: Chk-1 Kinase Inhibiting Activity (33P-ATP filter assay, CHKtide substrate); assay type: biochemical; conditions: against Chk-1 kinase; read-out: IC50
Sequence of Chk-1 kinase (O14757 whole entry): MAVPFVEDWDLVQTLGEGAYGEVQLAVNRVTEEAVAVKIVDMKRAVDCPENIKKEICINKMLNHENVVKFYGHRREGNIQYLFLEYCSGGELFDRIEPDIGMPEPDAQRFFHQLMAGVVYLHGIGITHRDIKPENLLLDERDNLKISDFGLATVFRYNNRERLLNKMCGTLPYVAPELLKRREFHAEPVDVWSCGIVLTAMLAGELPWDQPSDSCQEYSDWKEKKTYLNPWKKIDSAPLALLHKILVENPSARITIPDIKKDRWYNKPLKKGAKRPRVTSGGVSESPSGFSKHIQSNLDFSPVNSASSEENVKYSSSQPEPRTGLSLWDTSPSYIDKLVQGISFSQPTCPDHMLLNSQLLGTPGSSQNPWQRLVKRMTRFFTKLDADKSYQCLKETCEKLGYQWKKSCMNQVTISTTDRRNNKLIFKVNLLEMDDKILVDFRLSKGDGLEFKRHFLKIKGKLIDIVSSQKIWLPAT
Method: Chk-1 Kinase Inhibiting Activity
The compounds of the invention were tested for activity against Chk-1 kinase using the materials and protocols set out below.
Base Reaction buffer: 20 mM Hepes (pH 7.5), 10 mM MgCl2, 1 mM EGTA, 0.02% Brij35, 0.02 mg/ml BSA, 0.1 mM Na3VO4, 2 mM DTT, 1% DMSO
*Required cofactors are added individually to each kinase reaction
(i) Prepare indicated substrate in freshly prepared Base Reaction Buffer
(ii) Deliver any required cofactors to the substrate solution above
(iii) Deliver indicated kinase into the substrate solution and gently mix
(iv) Deliver compounds in DMSO into the kinase reaction mixture
(v) Deliver ^33P-ATP (specific activity 0.01 μCi/μl final) into the reaction mixture to initiate the reaction.
(vi) Incubate kinase reaction for 120 minutes at room temperature
(vii) Reactions are spotted onto P81 ion exchange paper (Whatman #3698-915)
(viii) Wash filters extensively in 0.1% phosphoric acid.
(ix) Dry filters and measure counts in scintillation counter
Recombinant full length construct, N-terminal GST tagged, purified from insect cells.
No special measures were taken to activate this kinase.
Final concentration in assay=0.5 nM
Peptide sequence: [[…]]
Final concentration in assay=20 μM
No additional cofactors are added to the reaction mixture
From the results obtained by following the above protocol, the IC50 values against Chk-1 kinase of each of the compounds of Examples 1-153 were determined and these are shown in Table 3.

[3] = Chk1 inhibitor alone, MIA PaCa-2 cells, 72 h, read-out: Chk1 IC50
[4] = MIA PaCa-2, 72 h, read-out: Chk1 IC50 (nM)

Structure (SMILES)	IC50 [1, 3] [nM]	10xLS ([1]; MIA PaCa-2 cells, 72 h) [nM]	2xLS ([1]; MIA PaCa-2 cells, 72 h) [nM]	IC50 [2] [nM]	IC50 [1, 4] [nM]
COc1cc(NCc2ccccc2)cc(OC)c1-c1cc(Nc2cnc(C#N)cn2)n[nH]1 [Example 1, 5-[5-(4-Benzylamino-2,6-dimethoxy-phenyl)-1H-pyrazol-3-ylamino]-pyrazine-2-carbonitrile]	5390	1000	100	2.8	
COc1cc(NCc2ccccc2)ccc1-c1cc(Nc2cnc(C#N)cn2)n[nH]1 [Example 2, 5-[5-(4-benzylamino-2-methoxy-phenyl)-1H-pyrazol-3-ylamino]-pyrazine-2-carbonitrile]	1410	1000	100	2.7	
COc1cc(CNCc2ccccc2)ccc1-c1cc(Nc2cnc(C#N)cn2)n[nH]1 [Example 3, 5-{5-[4-(Benzylamino-methyl)-2-methoxy-phenyl]-1H-pyrazol-3-ylamino}-pyrazine-2-carbonitrile hydrochloride]		100	10	0.21	275
COc1cc(CCNCc2ccccc2)ccc1-c1cc(Nc2cnc(C#N)cn2)n[nH]1 [Example 4, 5-{5-[4-(2-Benzylamino-ethyl)-2-methoxy-phenyl]-1H-pyrazol-3-ylamino}-pyrazine-2-carbonitrile hydrochloride]				0.19	
N#Cc1cnc(Nc2cc(-c3ccc(CNCc4ccccc4)cc3)[nH]n2)cn1 [Example 5, 5-{5-[4-(benzylamino-methyl)-phenyl]-1H-pyrazol-3-ylamino}-pyrazine-2-carbonitrile]				2	
COc1cc(CN[C@@H](C)c2ccc(F)cc2)ccc1-c1cc(Nc2cnc(C#N)cn2)n[nH]1 [Example 6, 5-[5-(4-{[(S)-1-(4-fluoro-phenyl)-ethylamino]-methyl}-2-methoxy-phenyl)-1H-pyrazol-3-ylamino]-pyrazine-2-carbonitrile]	338	300	30	0.097	
COc1cc(CN[C@H](C)c2ccc(F)cc2)ccc1-c1cc(Nc2cnc(C#N)cn2)n[nH]1 [Example 7, 5-[5-(4-{[(R)-1-(4-fluoro-phenyl)-ethylamino]-methyl}-2-methoxy-phenyl)-1H-pyrazol-3-ylamino]-pyrazine-2-carbonitrile]	208	~200	10	0.1	
COc1cc(CNCc2ccc(F)cc2)ccc1-c1cc(Nc2cnc(C#N)cn2)n[nH]1 [Example 8, 5-(5-{4-[(4-fluoro-benzylamino)-methyl]-2-methoxy-phenyl}-1H-pyrazol-3-ylamino)-pyrazine-2-carbonitrile]	259	~200	10	0.058	
COc1cc(CNCCN2CCOCC2)ccc1-c1cc(Nc2cnc(C#N)cn2)n[nH]1 [Example 9, 5-(5-{2-methoxy-4-[(2-morpholin-4-yl-ethylamino)-methyl]-phenyl}-1H-pyrazol-3-ylamino)-pyrazine-2-carbonitrile]	227	100	3	0.077	
COc1cc(CNC(=O)C2CC2)ccc1-c1cc(Nc2cnc(C#N)cn2)n[nH]1 [Example 13, N-[[4-[3-[(5-cyanopyrazin-2-yl)amino]-1H-pyrazol-5-yl]-3-methoxy-phenyl]methyl]cyclopropanecarboxamide]	> 3000	300	~20		
COc1cc(C2CCCCN2C)ccc1-c1cc(Nc2cnc(C#N)cn2)n[nH]1 (stereo not shown) [Example 41, 5-[[5-[2-methoxy-4-(1-methyl-2-piperidyl)phenyl]-1H-pyrazol-3-yl]amino]pyrazine-2-carbonitrile]	1110	300	30		
COc1cc(C2CCNCC2)ccc1-c1cc(Nc2cnc(C(=O)O)cn2)n[nH]1 [Example 45, 5-[[5-[2-methoxy-4-(4-piperidyl)phenyl]-1H-pyrazol-3-yl]amino]pyrazine-2-carboxylic acid]				> 100	
COc1cc(OCc2cocn2)ccc1-c1cc(Nc2cnc(C#N)cn2)n[nH]1 [Example 105, 5-[[5-[2-methoxy-4-(oxazol-4-ylmethoxy)phenyl]-1H-pyrazol-3-yl]amino]pyrazine-2-carbonitrile]	2300	1000	30		
COc1cc([C@H]2CN(C)CCO2)ccc1-c1cc(Nc2cnc(C#N)cn2)n[nH]1 [Example 119, 5-[[5-[2-methoxy-4-[(2S)-4-methylmorpholin-2-yl]phenyl]-1H-pyrazol-3-yl]amino]pyrazine-2-carbonitrile]	687	<300	10		
CCN1CCO[C@@H](c2ccc(-c3cc(Nc4cnc(C#N)cn4)n[nH]3)c(OC)c2)C1 [Example 120, 5-[[5-[2-methoxy-4-[(2S)-4-ethylmorpholin-2-yl]phenyl]-1H-pyrazol-3-yl]amino]pyrazine-2-carbonitrile]	397	100	3		
COc1cc(CN2CC[C@H](OC)C2)ccc1-c1cc(Nc2cnc(C#N)cn2)n[nH]1 [Example 124, 5-[[5-[2-methoxy-4-[[(3S)-3-methoxypyrrolidin-1-yl]methyl]phenyl]-1H-pyrazol-3-yl]amino]pyrazine-2-carbonitrile]	322	<300	3		
COc1cc(CN2CC[C@@H](OC)C2)ccc1-c1cc(Nc2cnc(C#N)cn2)n[nH]1 [Example 125, 5-[[5-[2-methoxy-4-[[(3R)-3-methoxypyrrolidin-1-yl]methyl]phenyl]-1H-pyrazol-3-yl]amino]pyrazine-2-carbonitrile]	550	<300	10		
CCN1CCC[C@@H]1Cc1ccc(-c2cc(Nc3cnc(C#N)cn3)n[nH]2)c(OC)c1 [Example 149, 5-[[5-[4-[[(2R)-1-ethylpyrrolidin-2-yl]methyl]-2-methoxy-phenyl]-1H-pyrazol-3-yl]amino]pyrazine-2-carbonitrile hydrochloride]		30	<3		188
COc1cc([C@H]2CN(C(C)C)CCO2)ccc1-c1cc(Nc2cnc(C#N)cn2)n[nH]1 [Example 150, 5-[[5-[4-[(2S)-4-isopropylmorpholin-2-yl]-2-methoxy-phenyl]-1H-pyrazol-3-yl]amino]pyrazine-2-carbonitrile]	259	100	3		
COc1cc(C[C@H]2CCCN2C(C)C)ccc1-c1cc(Nc2cnc(C#N)cn2)n[nH]1 [Example 151, 5-[[5-[4-[[(2R)-1-isopropylpyrrolidin-2-yl]methyl]-2-methoxy-phenyl]-1H-pyrazol-3-yl]amino]pyrazine-2-carbonitrile]	101	<30	<3		
CCN1CCC[C@H]1Cc1ccc(-c2cc(Nc3cnc(C#N)cn3)n[nH]2)c(OC)c1 [Example 152, 5-[[5-[4-[[(2S)-1-ethylpyrrolidin-2-yl]methyl]-2-methoxy-phenyl]-1H-pyrazol-3-yl]amino]pyrazine-2-carbonitrile]	428	100	3		
COc1cc(C[C@@H]2CCCN2C(C)C)ccc1-c1cc(Nc2cnc(C#N)cn2)n[nH]1 [Example 154, 5-[[5-[4-[[(2S)-1-isopropylpyrrolidin-2-yl]methyl]-2-methoxy-phenyl]-1H-pyrazol-3-yl]amino]pyrazine-2-carbonitrile]	395	100	3		
